The subject of test [1] is human colon cancer cell LoVo. Kind of test: MTT proliferation assay, LoVo. It is filed as cell-based. The method, then: The cells were seeded into 96-well cell culture plate with a density of 2000/4000 cells per well and incubated overnight in a 5% CO2 incubator at 37° C. […] 5 μL diluent of each concentration was added to 120 μL of medium (25 times diluted) and mixed by shaking. The overnight cell plates were taken and the culture medium was removed, 195 μL of fresh medium was added to each well, and 5 μL of diluted medium containing the corresponding concentration of the test compound was added respectively (the final concentration of DMSO is 1%), and the culture plate was then placed in a 5% CO2 incubator at 37° C. for 4 days. After removing the original solution, 100 μL of fresh serum-free DMEM medium containing MTT (0.5 mg/mL) was added to each well, the culture was continued. […] Cell viability (%)=(ODcompound−ODbackground)/(ODDMSO-ODbackground)×100. GraphPad Prism 6.0 was used to analyze the data. The inhibitory activity of compounds on cell proliferation was plotted based on cell viability and the logarithm of compound concentration.

The target of another test is T1, ATR/ATRIP enzyme (Homo sapiens, UniProt Q13535).
T1 construct: purchased Eurofins 14-953
Kind of test: ATR enzyme activity experiment (HTRF). It is filed as biochemical. The note with it: for IC50: read-out: IC50 (nM), inhibitory effects on ATR kinase activity, HTRF, p53 substrate, 30 minutes at room temperature. The method, then:
The test compound was diluted to a 4× final concentration with reaction buffer (25 mM HEPES (pH8.0), 10 mM MnCl2, 1% glycerol, 0.01% Brij-35, 5 mM DTT and 0.1% BSA). […] The mixture was centrifuged at 1000 rpm for 1 minute, and reacted at room temperature protected from light for 30 minutes. Then 5 μL of EDTA stop solution (250 mM) was added to stop the reaction. […] Data were analyzed using GraphPad Prism6.0, and fitted using the curve equation: Y=Bottom+(Top−Bottom)/(1+10^((Log IC50−X)*HillSlope)) and IC50 values were calculated.

For test [2], the system named is human prostate cancer cell DU145. Kind of test: MTT proliferation assay, DU145. It counts as cell-based. The note with it: for IC50: Homo sapiens, DU-145, 96 h, 4 days, read-out: IC50 (nM), inhibition of proliferation of DU145. As for the experimental part:
The cells were digested by trypsinase and centrifuged at 800 rpm for 5 minutes, the supernatant was discarded, and the residual was resuspended with fresh medium (DMEM medium+10% FBS+non-essential amino acid) and counted. The cells were seeded into 96-well cell culture plate with a density of 2000 cells per well and incubated overnight in a 5% CO2 incubator at 37° C. […] 5 μL of each concentration was added to 120 μL of medium (25 times diluted) and mixed by shaking. The overnight cell plates were taken and the culture medium was removed, 195 μL of fresh medium was added to each well, and 5 μL of diluted medium containing the corresponding concentration of the test compound was added respectively (the final concentrations of compounds are shown in Table 3, the final concentration of DMSO is 1%), and the culture plate was then placed in a 5% CO2 incubator at 37° C. for 4 days. After removing the original solution, 100 μL of fresh serum-free DMEM medium containing MTT (0.5 mg/mL) was added to each well, the culture was continued. […] GraphPad Prism 6.0 was used to analyze the data. The inhibitory activity of compounds on cell proliferation was plotted based on cell viability and the logarithm of compound concentration. Cell viability %=(ODcompound−ODbackground)/(ODDMSO−ODbackground)×100.
(In general: Formazan colour is commonly taken as a measure of viable cells.)

The test system of test [3] is human lung cancer cell NCI-H460. Kind of test: MTT proliferation assay, NCI-H460. It counts as cell-based. The note with it: for IC50: Homo sapiens, NCI-H460, 96 h, 4 days, read-out: IC50 (nM), inhibition of proliferation of NCI-H460. As for the experimental part:
The cells were seeded into 96-well cell culture plate with a density of 2000/4000 cells per well and incubated overnight in a 5% CO2 incubator at 37° C. […] diluent of each concentration was added to 120 μL of medium (25 times diluted) and mixed by shaking. The overnight cell plates were taken and the culture medium was removed, 195 μL of fresh medium was added to each well, and 5 μL of diluted medium containing the corresponding concentration of the test compound was added respectively (the final concentration of DMSO is 1%), and the culture plate was then placed in a 5% CO2 incubator at 37° C. for 4 days. After removing the original solution, 100 μL of fresh serum-free DMEM medium containing MTT (0.5 mg/mL) was added to each well, the culture was continued. […] Cell viability (%)=(ODcompound−ODbackground)/(ODDMSO−ODbackground)×100. GraphPad Prism 6.0 was used to analyze the data. The inhibitory activity of compounds on cell proliferation was plotted based on cell viability and the logarithm of compound concentration.

T1 sequence (Q13535 whole entry): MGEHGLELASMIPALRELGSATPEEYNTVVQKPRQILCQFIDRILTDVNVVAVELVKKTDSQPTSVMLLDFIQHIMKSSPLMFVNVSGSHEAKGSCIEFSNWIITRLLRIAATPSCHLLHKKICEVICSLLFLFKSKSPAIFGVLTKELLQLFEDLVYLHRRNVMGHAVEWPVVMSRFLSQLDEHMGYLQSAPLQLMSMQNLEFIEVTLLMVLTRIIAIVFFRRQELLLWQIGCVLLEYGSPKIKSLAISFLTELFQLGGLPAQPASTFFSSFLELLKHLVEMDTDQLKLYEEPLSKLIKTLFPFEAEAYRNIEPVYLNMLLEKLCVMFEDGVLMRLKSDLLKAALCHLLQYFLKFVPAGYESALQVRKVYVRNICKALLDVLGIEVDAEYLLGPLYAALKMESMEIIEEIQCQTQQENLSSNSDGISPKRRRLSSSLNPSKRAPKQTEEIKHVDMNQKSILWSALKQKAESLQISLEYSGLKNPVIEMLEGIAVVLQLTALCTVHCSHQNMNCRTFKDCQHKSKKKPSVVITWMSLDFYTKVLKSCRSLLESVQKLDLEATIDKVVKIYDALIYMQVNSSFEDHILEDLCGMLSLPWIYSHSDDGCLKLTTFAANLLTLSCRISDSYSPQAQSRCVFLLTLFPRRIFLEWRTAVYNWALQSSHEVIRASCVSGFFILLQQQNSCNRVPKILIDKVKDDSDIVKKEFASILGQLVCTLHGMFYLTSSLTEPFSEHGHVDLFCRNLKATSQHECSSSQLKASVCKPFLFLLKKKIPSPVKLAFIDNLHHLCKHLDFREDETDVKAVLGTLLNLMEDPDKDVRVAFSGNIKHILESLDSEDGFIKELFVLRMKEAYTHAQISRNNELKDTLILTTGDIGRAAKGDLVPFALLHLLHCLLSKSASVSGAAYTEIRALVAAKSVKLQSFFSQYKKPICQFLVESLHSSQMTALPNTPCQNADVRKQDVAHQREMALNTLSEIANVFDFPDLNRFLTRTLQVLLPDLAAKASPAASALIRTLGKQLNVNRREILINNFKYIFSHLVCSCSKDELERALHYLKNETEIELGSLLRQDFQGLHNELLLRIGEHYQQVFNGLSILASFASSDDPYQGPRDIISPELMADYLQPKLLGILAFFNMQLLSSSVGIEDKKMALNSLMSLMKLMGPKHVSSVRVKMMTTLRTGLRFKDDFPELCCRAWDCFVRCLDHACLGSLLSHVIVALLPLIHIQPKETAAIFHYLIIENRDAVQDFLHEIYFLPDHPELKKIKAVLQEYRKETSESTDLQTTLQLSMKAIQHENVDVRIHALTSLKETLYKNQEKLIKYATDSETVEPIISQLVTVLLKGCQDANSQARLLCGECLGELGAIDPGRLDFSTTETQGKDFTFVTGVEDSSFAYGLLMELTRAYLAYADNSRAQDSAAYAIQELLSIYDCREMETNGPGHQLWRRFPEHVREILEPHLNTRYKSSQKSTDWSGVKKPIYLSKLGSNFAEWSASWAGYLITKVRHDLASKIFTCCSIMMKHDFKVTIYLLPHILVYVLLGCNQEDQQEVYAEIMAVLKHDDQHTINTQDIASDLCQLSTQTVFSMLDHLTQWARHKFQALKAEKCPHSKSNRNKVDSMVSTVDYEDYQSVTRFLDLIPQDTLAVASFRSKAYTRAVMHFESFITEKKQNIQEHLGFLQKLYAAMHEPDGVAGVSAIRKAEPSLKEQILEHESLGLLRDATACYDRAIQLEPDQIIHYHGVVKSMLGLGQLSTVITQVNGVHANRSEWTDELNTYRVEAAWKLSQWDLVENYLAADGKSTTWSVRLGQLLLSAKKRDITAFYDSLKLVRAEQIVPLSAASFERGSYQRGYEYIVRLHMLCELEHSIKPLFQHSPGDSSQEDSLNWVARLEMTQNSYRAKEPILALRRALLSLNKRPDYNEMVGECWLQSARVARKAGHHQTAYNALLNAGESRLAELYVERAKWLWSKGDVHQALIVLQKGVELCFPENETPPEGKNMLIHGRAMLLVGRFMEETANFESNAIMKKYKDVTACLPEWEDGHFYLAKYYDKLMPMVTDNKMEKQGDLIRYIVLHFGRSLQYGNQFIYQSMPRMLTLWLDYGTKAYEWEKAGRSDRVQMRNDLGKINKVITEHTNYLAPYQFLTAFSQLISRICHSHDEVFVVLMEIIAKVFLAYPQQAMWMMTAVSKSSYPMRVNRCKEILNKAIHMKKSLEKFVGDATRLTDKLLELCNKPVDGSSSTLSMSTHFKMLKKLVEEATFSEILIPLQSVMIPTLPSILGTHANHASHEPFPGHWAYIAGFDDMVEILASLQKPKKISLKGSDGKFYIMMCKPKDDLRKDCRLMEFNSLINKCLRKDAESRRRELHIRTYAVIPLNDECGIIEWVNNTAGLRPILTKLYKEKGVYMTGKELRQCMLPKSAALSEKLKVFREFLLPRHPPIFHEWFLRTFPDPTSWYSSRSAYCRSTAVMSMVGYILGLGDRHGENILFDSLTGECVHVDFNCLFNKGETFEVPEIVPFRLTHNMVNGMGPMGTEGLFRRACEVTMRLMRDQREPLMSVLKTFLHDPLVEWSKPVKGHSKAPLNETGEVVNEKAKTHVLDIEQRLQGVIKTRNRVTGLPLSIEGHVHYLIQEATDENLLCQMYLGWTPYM
T1 sequence (Q8WXE1 whole entry partner): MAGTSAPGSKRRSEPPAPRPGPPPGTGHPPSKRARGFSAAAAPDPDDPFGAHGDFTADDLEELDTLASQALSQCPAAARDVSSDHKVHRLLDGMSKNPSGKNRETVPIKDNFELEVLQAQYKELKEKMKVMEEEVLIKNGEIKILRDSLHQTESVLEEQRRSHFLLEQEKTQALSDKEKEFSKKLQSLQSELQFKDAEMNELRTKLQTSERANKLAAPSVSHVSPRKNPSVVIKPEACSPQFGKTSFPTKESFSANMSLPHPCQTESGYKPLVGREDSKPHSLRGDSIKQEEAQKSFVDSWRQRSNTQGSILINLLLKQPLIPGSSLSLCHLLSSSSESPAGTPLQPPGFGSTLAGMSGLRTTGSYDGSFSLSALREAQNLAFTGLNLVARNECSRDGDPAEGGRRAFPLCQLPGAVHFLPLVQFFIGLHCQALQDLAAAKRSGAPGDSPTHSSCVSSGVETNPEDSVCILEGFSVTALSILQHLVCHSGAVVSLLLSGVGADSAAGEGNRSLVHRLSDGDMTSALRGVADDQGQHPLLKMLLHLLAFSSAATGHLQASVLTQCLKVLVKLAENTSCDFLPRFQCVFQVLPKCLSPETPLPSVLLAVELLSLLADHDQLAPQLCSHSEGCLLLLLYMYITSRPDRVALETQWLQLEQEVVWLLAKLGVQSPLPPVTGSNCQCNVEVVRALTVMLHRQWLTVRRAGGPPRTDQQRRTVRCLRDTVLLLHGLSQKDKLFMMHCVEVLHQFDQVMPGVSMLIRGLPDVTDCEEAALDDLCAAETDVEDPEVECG

As to `C[C@@H]1COCCN1c1cc(-c2ccnn2C)c2ncc(-c3ccn[nH]3)n2n1` [Example 2, (R)-3-methyl-4-(8-(1-methyl-1H-pyrazol-5-yl)-3-(1H-pyrazol-5-yl)imidazo[1,2-b]pyridazin-6-yl)morpholine], the “inhibitory effect on the proliferation of LoVo cell (in words)” value in test [1] is “inhibitory effect”. In addition, the IC50 on ATR/ATRIP enzyme was 938 nM. In test [2], the “inhibitory effect on the proliferation of DU145 cell (in words)” value was “inhibitory effect” and the IC50 was determined as 1220 nM. Moreover, in test [3], the “inhibitory effect on the proliferation of NCI-H460 cell (in words)” value is “inhibitory effect” and the IC50 worked out at 907 nM.

Turning to `C[C@@H]1CN(c2cc(N3CCOC[C@H]3C)nn3c(-c4ccn[nH]4)cnc23)C[C@H](C)O1` [Example 10, (2S,6R)-2,6-dimethyl-4-(6-((R)-3-methylmorpholino)-3-(1H-pyrazol-5-yl)imidazo[1,2-b]pyridazin-8-yl)morpholine], the IC50 is 2300 nM in test [2] and 1110 nM in test [3].

Regarding `C[C@@H]1COCCN1c1cc(-c2ccnn2C)c2cnc(-c3ccn[nH]3)n2n1` [Example 13, (R)-3-methyl-4-(4-(1-methyl-1H-pyrazol-5-yl)-7-(1H-pyrazol-5-yl)imidazo[1,5-b]pyridazin-2-yl)morpholine], in test [1], the “inhibitory effect on the proliferation of LoVo cell (in words)” value is listed as “good inhibitory effect”. The IC50 in test [1] (Homo sapiens, LoVo, 96 h, 4 days, read-out: IC50 (nM), inhibition of proliferation of LoVo) is 53.5 nM; on ATR/ATRIP enzyme, 4 nM; in test [2] it was 131 nM; in test [3], 41.3 nM. In addition, at ATR/ATRIP enzyme (ATR enzyme activity experiment), the “inhibitory effect on ATR kinase activity (in words)” value is “good inhibitory effect”. For the same compound, in test [2], the “inhibitory effect on the proliferation of DU145 cell (in words)” value is given as “good inhibitory effect”. The “inhibitory effect on the proliferation of NCI-H460 cell (in words)” value in test [3] was “good inhibitory effect”.

As to `C[C@@H]1COCCN1c1cc(-c2ccnn2C)n2ncc(-c3ccn[nH]3)c2n1` [Example 16, (R)-3-methyl-4-(7-(1-methyl-1H-pyrazol-5-yl)-3-(1H-pyrazol-5-yl)pyrazolo[1,5-a]pyrimidin-5-yl)morpholine], the IC50 was found to be 1370 nM in test [2] and 527 nM in test [3].

(Values after patent US12479848B2, “Substituted fused heteroaromatic bicyclic compounds as kinase inhibitors and the use thereof” (IMPACT THERAPEUTICS (SHANGHAI), INC, priority 2019, dated 2025).)
